Where two headings read alike, the source gives them in different places.
How the values were obtained:
Format in all cases: cell-based
NPM-ALK-BaF3 = biological target: T1, NPM-ALK-BaF3 (Homo sapiens, UniProt Q9UM73); assay: Growth inhibition of NPM-ALK transformed BaF3 cells (MTS); conditions: 48 hours
T1 construct: expressed in transfected cells; host or cells: Ba/F3 cells; the other entry of the earlier key: NPM1 (P06748, Nucleophosmin)
Experimental: (§1) The activity of compounds against ALK kinase was evaluated by inhibiting the growth of cellular ALK kinase EML4-ALK-BaF3, EML4-ALK (L1196M)-BaF3, NPM-ALK-BaF3, and wild type BaF3 (Proc. Natl. Acad. Sci. USA., 2006, 103, 3153-8.) The growth of cellular ALK kinase EML4-ALK-BaF3, EML4-ALK(L1196M)-BaF3, and NPM-ALK-BaF3 depends on their kinase activity. If compounds can inhibit the activity of ALK kinase or the activity of ALK signaling pathway, they can inhibit the growth of ALK transformed Ba/F3 cells. […] The broad-spectrum toxicity of compounds can be evaluated by determining the effect of the compounds on the growth of wild type BaF3 cells.
(§2) 1) Medium: DMEM (Dulbecco's modified eagle medium) or RPMI1640 (containing 10% fetal bovine serum, 100 μg/mL ampicillin, 100 μg/mL streptomycin).)
(§3) Reagents: MTS solution (2 mg/mL MTS (3-(4,5-dimethylthiazol-2-yl)-5-(3-carboxymethoxyphenyl)-2-(4-sulfophenyl)-2H-tetrazolium, inner salt); 100 μg/mL PES ([…])).
(§4) 3) Test of compound: Transformed Ba/F3 cells (EML4-ALK-BaF3, EML4-ALK(L1196M)-BaF3, NPM-ALK-BaF3) (2×10^4/well) were distributed into 96-well plates, with volume of cell sap of 90 μL, 10 μL of compounds in gradient concentration (the highest concentration 10 was μM, followed by 1/3 step by step dilution, a total of 8 concentrations were set, the system contained 0.1% DMSO (dimethyl sulfoxide)). The cell plates mixed with compounds were cultured in a cell incubator (37° C.; 5% CO2) for 48 hours, and the added 20 μL of MTS reaction solution, mixed and incubated in cell incubator (37° C.; 5% CO2) for 1-4 hours. The OD value at a wavelength of 490 nm was measured using eliasa (VARIOSKAN FLASH, Thermo). Three parallels were set up for each group, with a final concentration of 0.1% DMSO as negative control, and with medium without cells and compounds as blank control. The inhibition rate of cell growth was calculated by the following formula: Cell inhibition rate %=1−(OD experimental group−OD blank group)/(OD negative group−OD blank group)*100%
(§5) 4) Calculation of IC50 value: the semi inhibitory concentration of the compound acting on the cells was calculated using GradPad Prism 5 software according to the cell inhibitory rate measured.

EML4-ALK-BaF3 = biological target: T2, EML4-ALK-BaF3 (Homo sapiens, UniProt Q9UM73); assay: Growth inhibition of EML4-ALK transformed BaF3 cells (MTS); conditions: for IC50: EML4-ALK-BaF3 cells, 48 hours, MTS
T2 construct: expressed in transfected cells; host or cells: Ba/F3 cells; the other entry of the earlier key: EML4 (Q9HC35, Echinoderm microtubule-associated protein-like 4)
Experimental: (§6) If compounds can inhibit the activity of ALK kinase or the activity of ALK signaling pathway, they can inhibit the growth of ALK transformed Ba/F3 cells. […] The broad-spectrum toxicity of compounds can be evaluated by determining the effect of the compounds on the growth of wild type BaF3 cells.
as §2, §3
as §4, with “control.” for “control. The inhibition rate of cell growth was calculated by the following formula: Cell inhibition rate %=1−(OD experimental group−OD blank group)/(OD negative group−OD blank group)*100%”
as §5

EML4-ALK (L1196M)-BaF3 = biological target: T3, EML4-ALK (L1196M)-BaF3 (Homo sapiens, UniProt Q9UM73, L1196M); assay: Growth inhibition of EML4-ALK (L1196M) transformed BaF3 cells (MTS); conditions: 48 hours
T3 construct: expressed in transfected cells; host or cells: Ba/F3 cells; the other entry of the earlier key: EML4 (Q9HC35, Echinoderm microtubule-associated protein-like 4)
Experimental: as §6, §2, §3
as §4, with “control.” for “control. The inhibition rate of cell growth was calculated by the following formula: Cell inhibition rate %=1−(OD experimental group−OD blank group)/(OD negative group−OD blank group)*100%”
as §5

wild type BaF3 = assay: Growth inhibition of wild type BaF3 cells (broad-spectrum toxicity); conditions: Mus musculus, BaF3, 48 h, MTS
Experimental: as §1, §2, §3, §4, §5

[1] = Table 11, read-out: EML4-ALK (L1196M) (IC50 nM)
[2] = Table 12, read-out: L1196M (IC50 nM)

Compound | IC50 (NPM-ALK-BaF3; Table 11) [nM] | IC50 (EML4-ALK-BaF3; Table 11) [nM] | IC50 (EML4-ALK (L1196M)-BaF3; [1]) [nM] | IC50 (wild type BaF3; Table 11) [nM] | targeting selectivity (EML4-ALK-BaF3; ratio of IC50 between wild-type BaF3 and ALK transformed BaF3 cells) | IC50 (NPM-ALK-BaF3; Table 12) [nM] | IC50 (EML4-ALK-BaF3; Table 12) [nM] | IC50 (EML4-ALK (L1196M)-BaF3; [2]) [nM] | IC50 (wild type BaF3; Table 12) [nM]
COC(=O)c1ccccc1Nc1nc(Nc2ccc(N3CCC(O)CC3)cc2OC(C)C)nc2cc[nH]c12 [IG-9] | > 10000 | > 10000 | > 10000 | > 10000 | – | – | – | – | –
CCOc1cc(N2CCC(O)CC2)ccc1Nc1nc(Nc2ccccc2C(=O)OC)c2[nH]ccc2n1 [IG-10] | 19600 | 9800 | > 10000 | > 10000 | – | – | – | – | –
COC(=O)c1ccccc1Nc1nc(Nc2ccc(C(=O)N3CCC(N4CCN(C)CC4)CC3)cc2OC)nc2cc[nH]c12 [IG-12] | 4080 | 6500 | 4130 | ~7740 | – | – | – | – | –
COC(=O)c1ccccc1Nc1nc(Nc2ccc(N3CCN(C)CC3)cn2)nc2cc[nH]c12 [IG-13] | > 10000 | > 10000 | > 10000 | > 10000 | – | – | – | – | –
COC(=O)c1ccccc1Nc1nc(Nc2cc(C)c(C3CCN(C)CC3)cc2OC)nc2cc[nH]c12 [IG-14] | 1390 | ~1260 | 884 | ~2550 | – | – | – | – | –
COC(=O)c1ccccc1Nc1nc(Nc2ccc(N3CCOCC3)cc2OC)nc2cc[nH]c12 [IG-16] | 1740 | 1370 | 1390 | 2350 | – | – | – | – | –
COC(=O)c1ccccc1Nc1nc(Nc2ccc(C(=O)N3CCOCC3)cc2OC)nc2cc[nH]c12 [IG-17] | 7670 | 7610 | ~9460 | 9390 | – | – | – | – | –
COC(=O)c1ccccc1Nc1nc(Nc2ccc(N3CCC(O)CC3)nc2)nc2cc[nH]c12 [IG-18] | 8760 | 4680 | 4370 | > 10000 | – | – | – | – | –
CCC(C)OC(=O)c1ccccc1Nc1nc(Nc2ccc(N3CCN(C)CC3)cc2OC)nc2cc[nH]c12 (stereo not drawn) [IH-1] | 1560 | 1120 | 916 | 2070 | – | – | – | – | –
CCC(C)OC(=O)c1ccccc1Nc1nc(Nc2ccc(N3CCC(O)CC3)cc2)nc2cc[nH]c12 (stereo not drawn) [IH-2] | > 10000 | > 10000 | 40400 | > 10000 | – | – | – | – | –
CCC(C)OC(=O)c1ccccc1Nc1nc(Nc2ccc(N3CCC(N4CCN(C)CC4)CC3)cc2OC)nc2cc[nH]c12 (stereo not drawn) [IH-3] | ~859 | ~446 | 502 | ~949 | – | – | – | – | –
COC(=O)c1cccc(Nc2nc(Nc3ccc(N4CCN(C)CC4)cc3OC)nc3cc[nH]c23)c1 [II-1] | 1640 | 1490 | ~2630 | ~2710 | – | – | – | – | –
COC(=O)c1cccc(Nc2nc(Nc3ccc(N4CCC(N5CCN(C)CC5)CC4)cc3OC)nc3cc[nH]c23)c1 [II-2] | ~2600 | 1810 | ~2560 | ~3030 | – | – | – | – | –
COC(=O)c1cccc(Nc2nc(Nc3ccc(N4CCC(O)CC4)cc3)nc3cc[nH]c23)c1 [II-3] | 4910 | 7470 | 6160 | 9610 | – | – | – | – | –
COC(=O)c1cccc(Nc2nc(Nc3ccc(N4CCOCC4)cc3)nc3cc[nH]c23)c1 [II-5] | 1290 | 238 | 488 | 1060 | good targeting selectivity | – | – | – | –
COC(=O)c1cccc(Nc2nc(Nc3ccc(N4CCC(N5CCCC5)CC4)cc3OC)nc3cc[nH]c23)c1 [II-6] | 6720 | 4960 | ~7400 | ~8220 | – | – | – | – | –
COc1cc(N2CCN(C)CC2)ccc1Nc1nc(Nc2ccccc2SC)c2c(ccn2C)n1 [IIA-1] | – | – | – | – | – | 512 | ~909 | ~2560 | 1550
COc1cc(N2CCC(N3CCN(C)CC3)CC2)ccc1Nc1nc(Nc2ccccc2SC)c2c(ccn2C)n1 [IIA-2] | – | – | – | – | – | 1400 | ~1110 | 1620 | ~883
CSc1ccccc1Nc1nc(Nc2ccc(N3CCC(O)CC3)cc2)nc2ccn(C)c12 [IIA-3] | – | – | – | – | – | 456 | 321 | 161 | 376
CSc1ccccc1Nc1nc(Nc2ccc(S(N)(=O)=O)cc2)nc2ccn(C)c12 [IIA-4] | – | – | – | – | – | 2700 | 1300 | 1320 | 2570
CCOc1cc(C(=O)N2CCC(N3CCN(C)CC3)CC2)ccc1Nc1nc(Nc2ccccc2SC)c2c(ccn2C)n1 [IIA-5] | – | – | – | – | – | 519 | ~877 | ~883 | ~336
CSc1ccccc1Nc1nc(Nc2ccc(N3CCN(C)CC3)cc2)nc2ccn(C)c12 [IIA-6] | – | – | – | – | – | 536 | 644 | 978 | 1370
COc1cc(N2CCN(C)CC2)ccc1Nc1nc(Nc2ccccc2SC(C)C)c2c(ccn2C)n1 [IIB-1] | – | – | – | – | – | ~2510 | 1720 | ~2800 | 1930
COc1cc(N2CCC(N3CCN(C)CC3)CC2)ccc1Nc1nc(Nc2ccccc2SC(C)C)c2c(ccn2C)n1 [IIB-2] | – | – | – | – | – | ~940 | ~949 | ~853 | 606
CC(C)Sc1ccccc1Nc1nc(Nc2ccc(N3CCC(O)CC3)cc2)nc2ccn(C)c12 [IIB-3] | – | – | – | – | – | 653 | 489 | 917 | 1040
CC(C)Sc1ccccc1Nc1nc(Nc2ccc(S(N)(=O)=O)cc2)nc2ccn(C)c12 [IIB-4] | – | – | – | – | – | 4570 | 3020 | 4210 | 4880

Reference: patent US10508118B2, “Pyrimidopyrrole compounds, method for preparing the same, pharmaceutical compositions comprising the same and uses thereof” (Xiamen University, priority 2015, dated 2019)
